In patent US8993606B2, “Oral formulations for treating metal overload” (FerroKin BioSciences, Inc., priority 2011, dated 2015):
Read-outs that look alike come from different tables or passages of the source.

Columns and labels:
[1] = Preliminary analysis of pharmacokinetic results from the clinical studies as a whole; assay type: in vivo, human
Excerpt: The results were similar across the common doses in the 4 studies. […] See also FIG. 10.

iron = test: Pharmacodynamics: iron in 24-hour urine; assay type: in vivo, human
Protocol: Urine was collected for 24 hours following administration of Compound 1. […] In other studies, a more sensitive urinary iron assay was employed (LLOQ 10 μg/dL).

[2] = Example 9: single-dose study in healthy human subjects 30-75 mg/kg and 20 mg/kg x 2 (PK); assay type: in vivo; details: for Vd/F / AUC(0-inf) / AUC(0-t) / Cmax / half-life / Tmax / CL renal: human; for Vd/F / AUC(0-inf) / AUC(0-t) / Cmax / half-life / Tmax: plasma; for Vd/F: read-out: VZ/F; for CL renal: urine and plasma
Protocol: Example 9 was a single-dose escalating study in healthy volunteers. The objectives of the study were to assess the safety, tolerability, pharmacokinetic, and pharmacodynamics of single ascending doses of Compound 1. The doses tested were 30, 40, 50, 60, and 75 mg/kg once daily and a regimen of 20 mg/kg twice a day, which extended the range of doses evaluated. This Example confirms the earlier results obtained with higher dosage, as described in Example 7.
This was a single-center, double-blind, placebo-controlled study of ascending single oral doses of Compound 1. Six cohorts of 8 subjects (30 and 50 mg/kg single doses) or 5 subjects (40, 60, and 75 mg/kg single doses and 20 mg/kg×2 doses at 12 hour intervals) were dosed sequentially with Compound 1. Within each cohort, 7 or 4 subjects received Compound 1 and 1 subject received placebo. Subjects in the 20 mg/kg×2 doses cohort received a dose the evening prior to the study day (Day −1), approximately 12 hours prior to dosing on Day 1. The dose administered on Day −1 followed a 2-hour fast and that on Day 1 a 10-hour fast.
A total of 36 subjects were enrolled and all subjects completed the study. The 30 subjects that received active drug comprised the pharmacokinetic (PK) analysis population.
[…] subjects receiving a single dose, blood samples for the measurement of the total (free and iron bound complex) plasma concentrations of Compound 1 were collected before and 0.25, 0.5, 0.75, 1, 1.25, 1.5, 2, 2.5, 4, 8, 12, 24, 48, 72, and 96 hours after dosing. Subjects receiving two doses of 20 mg/kg had blood collected prior and 0.5, 1, 1.5, 2, and 2.5 hours after the first dose. After the second dose in the morning of Day 1, the sampling schedule was identical to that used for subjects receiving a single dose.
In all cohorts, urine was collected in pooled intervals of 0-4, 4-8, 8-12 and 12-24 hours after the dose on Day 1 for the analysis of Compound 1 concentrations.

[3] = 20 mg/kg × 2 at 12-hour interval
[4] = oral, 20 mg/kg × 2, for the total dose of 40 mg/kg

**Q.** For `COCCOCCOCCOc1cccc(C2=N[C@@](C)(C(=O)O)CS2)c1O` [Compound 1, (S)-4,5-Dihydro-2-[2-hydroxy-3-(3,6,9-trioxadecyloxy)phenyl]-4-methyl-4-thiazolecarboxylate magnesium hydroxide], which dose proportionality ([1]; dosing range of 3 to 50 mg/kg, preliminary analysis) is on record?
**A.** dose-proportionality in Cmax and AUC

**Q.** And the Tmax ([1]; human, plasma, oral, in each study)?
**A.** ~1 h

**Q.** What about the “iron in 24 hour urine” value (iron; all doses, LLOQ of iron approximately 195 μg/dL) of the same molecule?
**A.** no detectable iron

**Q.** What about the “iron in urine, more sensitive assay” value (iron; other studies, LLOQ 10 μg/dL, no dose-dependent trends) of the same molecule?
**A.** Iron was detected in the urine of all subjects

**Q.** What about the CL/F ([2]; 20 mg/kg × 2, calculated with total dose of 40 mg/kg) of the same molecule?
**A.** 235 ± 96.2 mL/min

**Q.** What about the “Ue(0-24)” value [2, 3] of the same molecule?
**A.** 805 ± 208 mg

**Q.** What about the λZ [2, 3] of the same molecule?
**A.** 0.0744 ± 0.0158 h⁻¹

**Q.** What about the “dose recovered in the urine over 24-hour post-dose period” value ([2]; 30 and 40 mg/kg) of the same molecule?
**A.** approximately 55%

**Q.** And the Vd/F ([2]; oral, 20 mg/kg × 2, calculated with total dose of 40 mg/kg)?
**A.** 208 ± 136 L

**Q.** What about the AUC(0-inf) [2, 4] of the same molecule?
**A.** 231 µg·h/mL

**Q.** And the AUC(0-t) [2, 4]?
**A.** 221 µg·h/mL

**Q.** What about the Cmax ([2]; oral, 20 mg/kg × 2 at 12-hour interval, for the second dose) of the same molecule?
**A.** 52.9 µg/mL

**Q.** And the half-life ([2]; oral, 20 mg/kg × 2 at 12-hour interval, read-out: t1/2 (converted))?
**A.** 9.64 ± 2.28 h

**Q.** What about the Tmax ([2]; oral, 20 mg/kg × 2 at 12-hour interval, second dose, median, read-out: tmax) of the same molecule?
**A.** 0.75 h

**Q.** What about the Tmax ([2]; oral, across cohorts, read-out: median values for Tmax, range) of the same molecule?
**A.** 1 to 1.5 h

**Q.** And the half-life ([2]; oral, across cohorts, read-out: t1/2, range)?
**A.** 8.36 to 18.6 h

**Q.** What about the AUC(0-inf) ([2]; single oral dose 30 mg/kg) of the same molecule?
**A.** 161 µg·h/mL

**Q.** What about the AUC(0-t) ([2]; single oral dose 30 mg/kg) of the same molecule?
**A.** 155 µg·h/mL

**Q.** What about the Cmax ([2]; single oral dose 30 mg/kg) of the same molecule?
**A.** 68.2 µg/mL

**Q.** What about the Tmax ([2]; single oral dose 30 mg/kg, median, read-out: tmax) of the same molecule?
**A.** 1 h

**Q.** What about the Vd/F ([2]; single oral dose 30 mg/kg) of the same molecule?
**A.** 248 ± 58.8 L

**Q.** What about the half-life ([2]; single oral dose 30 mg/kg, read-out: t1/2 (converted)) of the same molecule?
**A.** 12.1 ± 3.05 h

**Q.** What about the AUC(0-inf) ([2]; single oral dose 40 mg/kg) of the same molecule?
**A.** 195 µg·h/mL

**Q.** And the AUC(0-t) ([2]; single oral dose 40 mg/kg)?
**A.** 205 µg·h/mL

**Q.** And the Cmax ([2]; single oral dose 40 mg/kg)?
**A.** 87.9 µg/mL

**Q.** What about the Tmax ([2]; single oral dose 40 mg/kg, median, read-out: tmax) of the same molecule?
**A.** 1.38 h

**Q.** What about the Vd/F ([2]; single oral dose 40 mg/kg) of the same molecule?
**A.** 542 ± 657 L

**Q.** And the half-life ([2]; single oral dose 40 mg/kg, read-out: t1/2 (converted))?
**A.** 18.6 ± 19.2 h

**Q.** And the AUC(0-inf) ([2]; single oral dose 50 mg/kg)?
**A.** 236 µg·h/mL

**Q.** And the AUC(0-t) ([2]; single oral dose 50 mg/kg)?
**A.** 254 µg·h/mL

**Q.** And the Cmax ([2]; single oral dose 50 mg/kg)?
**A.** 91.7 µg/mL

**Q.** What about the Tmax ([2]; single oral dose 50 mg/kg, median, read-out: tmax) of the same molecule?
**A.** 1.5 h

**Q.** And the Vd/F ([2]; single oral dose 50 mg/kg)?
**A.** 338 ± 272 L

**Q.** And the half-life ([2]; single oral dose 50 mg/kg, read-out: t1/2 (converted))?
**A.** 12.8 ± 7.66 h

**Q.** What about the AUC(0-inf) ([2]; single oral dose 60 mg/kg) of the same molecule?
**A.** 205 µg·h/mL

**Q.** And the AUC(0-t) ([2]; single oral dose 60 mg/kg)?
**A.** 204 µg·h/mL

**Q.** What about the Cmax ([2]; single oral dose 60 mg/kg) of the same molecule?
**A.** 82.3 µg/mL

**Q.** And the Tmax ([2]; single oral dose 60 mg/kg, median, read-out: tmax)?
**A.** 1.38 h

**Q.** And the Vd/F ([2]; single oral dose 60 mg/kg)?
**A.** 454 ± 363 L

**Q.** And the half-life ([2]; single oral dose 60 mg/kg, read-out: t1/2 (converted))?
**A.** 11 ± 5.99 h

**Q.** What about the AUC(0-inf) ([2]; single oral dose 75 mg/kg) of the same molecule?
**A.** 247 µg·h/mL

**Q.** And the AUC(0-t) ([2]; single oral dose 75 mg/kg)?
**A.** 244 µg·h/mL

**Q.** What about the Cmax ([2]; single oral dose 75 mg/kg) of the same molecule?
**A.** 84.6 µg/mL

**Q.** And the Tmax ([2]; single oral dose 75 mg/kg, median, read-out: tmax)?
**A.** 1.38 h

**Q.** And the Vd/F ([2]; single oral dose 75 mg/kg)?
**A.** 342 ± 83.6 L

**Q.** And the half-life ([2]; single oral dose 75 mg/kg, read-out: t1/2 (converted))?
**A.** 8.36 ± 3.84 h

**Q.** What about the CL renal ([2]; oral, 20 mg/kg × 2 at 12-hour interval, read-out: CLr) of the same molecule?
**A.** 131 ± 18.7 mL/min

**Q.** And the CL renal ([2]; oral, not dependent upon dose, read-out: Renal clearance, average)?
**A.** ~140 mL/min

**Q.** What about the CL renal ([2]; single oral dose 30 mg/kg, read-out: CLr) of the same molecule?
**A.** 139 ± 13.2 mL/min

**Q.** And the CL renal ([2]; single oral dose 40 mg/kg, read-out: CLr)?
**A.** 152 ± 18 mL/min

**Q.** And the CL renal ([2]; single oral dose 50 mg/kg, read-out: CLr)?
**A.** 103 ± 16.2 mL/min

**Q.** What about the CL renal ([2]; single oral dose 60 mg/kg, read-out: CLr) of the same molecule?
**A.** 147 ± 28.2 mL/min

**Q.** And the CL renal ([2]; single oral dose 75 mg/kg, read-out: CLr)?
**A.** 165 ± 42.7 mL/min

**Q.** And the CL/F ([2]; single oral dose 30 mg/kg)?
**A.** 239 ± 17.2 mL/min

**Q.** What about the “Fe(0-24)” value ([2]; single oral dose 30 mg/kg) of the same molecule?
**A.** 54.8 ± 8.99 % Dose

**Q.** What about the “Ue(0-24)” value ([2]; single oral dose 30 mg/kg) of the same molecule?
**A.** 1,260 ± 255.3 mg

**Q.** And the λZ ([2]; single oral dose 30 mg/kg)?
**A.** 0.0615 ± 0.0200 h⁻¹

**Q.** And the CL/F ([2]; single oral dose 40 mg/kg)?
**A.** 290 ± 73.8 mL/min

**Q.** And the “Fe(0-24)” value ([2]; single oral dose 40 mg/kg)?
**A.** 57.1 ± 8.60 % Dose

**Q.** What about the “Ue(0-24)” value ([2]; single oral dose 40 mg/kg) of the same molecule?
**A.** 1,820 ± 397 mg

**Q.** And the λZ ([2]; single oral dose 40 mg/kg)?
**A.** 0.0677 ± 0.0439 h⁻¹

**Q.** What about the CL/F ([2]; single oral dose 50 mg/kg) of the same molecule?
**A.** 286 ± 56.1 mL/min

**Q.** And the “Fe(0-24)” value ([2]; single oral dose 50 mg/kg)?
**A.** 40.2 ± 8.69 % Dose

**Q.** What about the “Ue(0-24)” value ([2]; single oral dose 50 mg/kg) of the same molecule?
**A.** 1,500 ± 434 mg

**Q.** And the λZ ([2]; single oral dose 50 mg/kg)?
**A.** 0.0664 ± 0.0292 h⁻¹

**Q.** And the CL/F ([2]; single oral dose 60 mg/kg)?
**A.** 435 ± 117.0 mL/min

**Q.** And the “Fe(0-24)” value ([2]; single oral dose 60 mg/kg)?
**A.** 33.7 ± 8.37 % Dose

**Q.** And the “Ue(0-24)” value ([2]; single oral dose 60 mg/kg)?
**A.** 1,713 ± 480 mg

**Q.** What about the λZ ([2]; single oral dose 60 mg/kg) of the same molecule?
**A.** 0.0786 ± 0.0393 h⁻¹

**Q.** What about the CL/F ([2]; single oral dose 75 mg/kg) of the same molecule?
**A.** 540 ± 237 mL/min

**Q.** And the “Fe(0-24)” value ([2]; single oral dose 75 mg/kg)?
**A.** 35.0 ± 15.1 % Dose

**Q.** And the “Ue(0-24)” value ([2]; single oral dose 75 mg/kg)?
**A.** 2,199 ± 1,189 mg

**Q.** And the λZ ([2]; single oral dose 75 mg/kg)?
**A.** 0.0943 ± 0.0383 h⁻¹

**Q.** And the “dose recovered in the urine over 24-hour post-dose period” value ([2]; the 3 higher doses (50, 60, 75 mg/kg))?
**A.** approximately 38%
